Patent US20080176952A1, “Management of Ophthalmologic Disorders, Including Macular Degeneration” (priority 2004, published 2008)

Key:
[1] = system: mRPE65 / IMH activity in RPE membranes; test: Effect of 11-cis-retinol mediated depalmitoylation of mRPE65 on generation of 11-cis-retinol in RPE membranes; format: biochemical, bovine; conditions: RPE membranes pretreated with 10 μM, then UV and vitamin A
Protocol: Effect of 11-cis-retinol mediated depalmitoylation of mRPE65 on the generation of 11-cis-retinol: To 1 mL of buffered suspension of RPE membranes (100 mM Tris pH 8.0, 80 μg of protein) was added 10 μM of 11-cis-retinol and incubated at room temp. for 45 min. A control reaction mixture without 11-cis-retinol was also incubated at room temperature for 45 min. At the end of the 45 min incubation, the reaction mixtures were exposed to UV light (354 nm) for 10 min to destroy the 11-cis-retinoids. All-trains-retinol [11-12-^3H2] (0.1 μM) was then added to the reaction mixtures (100 mM Tris pH 8.0, 80 μg of RPE protein 5% BSA and 0.1 μM all-trans-retinol [11-12-^3H2], and incubated at 37° C. 100 μL aliquot of the reactions were quenched after 0, 5, 10, 15, 20, 30, 45, 60, 90, 120 and 150 min by the addition of 500 μL methanol after which 100 μL of H2O was added, and 500 μl hexane (containing butylated hydroxy toluene at 1 mg/mL) was added to effect extraction of the retinoids. The retinoids were analyzed as previously described (Winston and Rando 1998). The amount of 11-cis-retinol formed was used as a measurement of IMH activity. All experiments were performed in triplicate and the average values of these measurements were used for analysis. […]

tLRAT = molecular target: T1, tLRAT (Homo sapiens, UniProt O95237); test: Isomeric preference of the mRPE65/tLRAT mediated esterification of retinols; format: biochemical; conditions: compared to vitamin A; 0.02 μM mRPE65, 5 μM tLRAT
T1 construct: This form of LRAT has the two N and C-terminal transmembrane domains of LRAT truncated; made in house
T1 sequence (O95237 31-196 limits assumed): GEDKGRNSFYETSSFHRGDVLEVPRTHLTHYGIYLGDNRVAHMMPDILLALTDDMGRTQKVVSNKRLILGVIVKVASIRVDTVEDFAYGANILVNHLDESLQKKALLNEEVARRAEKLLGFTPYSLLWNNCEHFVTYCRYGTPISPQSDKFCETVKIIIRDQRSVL
Protocol: Isomeric preference of the mRPE65/tLRAT mediated esterification of retinols: The effect of mRPE65 on the processing of 11-cis- and all-trans-retinols was determined by monitoring the formation of tLRAT catalyzed retinyl esters from added all-trans-retinol [11,12-^3H2], 11-cis-retinol [15-^3H] and mRPE65. The reaction mixture (volume 0.1 mL) contains 100 mM Tris (pH 8.4), 5 μM of tLRAT 0.3% CHAPS, 1 mM dithiothreitol and 0.2 μM of all-trans-retinol [11,12-^3H2] or 11-cis-retinol [15-^3H] and mRPE65 ([…] 200 μM/0.4% DPPC/BSA was incubated for 10 min at room temperature. After 10 min the reaction was quenched with 500 μL methanol, 100 μL of water and 500 μL of hexane. The amount of retinyl palmitate formed, as determined by normal phase-HPLC, was used as a measure of activity. Each experiment was done in triplicate, and the data points used are an average of these three points. The standard error was presented as error bars.
11-cis-retinol, the direct product of IMH action, is also esterified (FIG. 12A). […] (2) all-trans-retinol (2 μM) and mRPE65 (0.02 μM). (3) 11-cis-retinol (2 μM) and DPPC/BSA (250 μM/0.4%). (4) all-trans-retinol (2 μM) and DPPC/BSA (250 μM/0.4%). All reaction mixtures contain 100 mM Tris pH 8.4, 1 mM dithiothreitol, 1 mM EDTA and 5 μM tLRAT.

substrate preference in tLRAT/mRPE65 mediated esterification (palmitoylation) (tLRAT): superior substrate
Structure (SMILES): CC1=C(/C=C/C(C)=C/C=C\C(C)=C\CO)C(C)(C)CCC1 [11-cis-retinol]
effect of pretreatment on 11-cis-retinol synthesis [1]: distinct lag period before product synthesis occurs
